Experiment [1] concerns Wistar rats. Description: Shuttle box test: acquirement of conditioned avoidance responses (CARs). Format: in vivo. To be noted: for CARs: mean + ES; for effect on number of conditioned responses and percentage of learners (in words): young and elderly rats, PR 156 tested only on young rats. The method, then:
(§1) Male young and elderly Wistar rats, weighing respectively […] and 580 g, were used.
(§2) The test compounds, dissolved in physiological saline, were administered orally to young and elderly animals, at doses of 5, lO and 20 mg/kg. Phosphoserine dissolved in physiological saline was administered at equimolecular doses (1.8, 3.6 and 7.2 mg/kg). The control animals were administered with the sole vehicle. The administrations were carried out once a day during 20 days, the last administration being effected 1 hour before the tests.
The following behavioral tests were carried out: • 1) Shuttle box test: to evaluate the acquirement of conditioned avoidance responses (CARs).

In experiment [2] the test system is Wistar rats. Description: Dark box test: effect on memory capability. Format: in vivo. The settings on record: for LATENCY (seconds): averages; for effect on acquirement of avoidance responses (in words): summary of Table 2, young and elderly rats. The method, then:
as §1, §2
2. Dark box test: to further evaluate the effect on memory capability of the animals.

Another experiment deals with elderly rats. Description: Despair test: antidepressant activity. Format: in vivo, Wistar rats. To be noted: for DURATION OF STILLNESS: Elderly rats, mean + SEM; for effect on stillness (in words): summary in text of Table 3, elderly rats. The procedure:
as §1, §2
3. Despair test: to estimate the antidepressant activity on the elderly rats.

The mark [3] stands for this setting: Young rats, 5 mg/kg orally once a day during 20 days, 5 mg/kg.
Where [4] appears, read: Young rats, 10 mg/kg orally once a day during 20 days, 10 mg/kg.
[5] abbreviates: Elderly rats, 5 mg/kg orally once a day during 20 days.
Where [6] appears, read: Elderly rats, 10 mg/kg orally once a day during 20 days.
[7] abbreviates: Elderly rats, 20 mg/kg orally once a day during 20 days.
Setting [8] is: Young rats, 20 mg/kg orally once a day during 20 days.
The mark [9] stands for this setting: Elderly rats, 1.8 mg/kg orally once a day during 20 days.
The mark [10] stands for this setting: Elderly rats, 3.6 mg/kg orally once a day during 20 days.
The mark [11] stands for this setting: Elderly rats, 7.2 mg/kg orally once a day during 20 days.
Where [12] appears, read: Young rats, 1.8 mg/kg orally once a day during 20 days.
Where [13] appears, read: Young rats, 3.6 mg/kg orally once a day during 20 days.
[14] abbreviates: Young rats, 7.2 mg/kg orally once a day during 20 days.

Each structure is given as a SMILES string. Structures can show the parent of a compound that is named as a salt. Marks after values point to notes of the source that are not given here.

Turning to `N[C@@H](COP(=O)(O)O)C(=O)O` [PR 156, L-Phosphoserine salt with L-Arginine 1:2], in the experiment with Wistar rats [1] (setting [3]), the “LEARNERS (%)” value is given as 100.0% and the CARs is on record as 23.4 + 1.9**. In addition, in the experiment on Wistar rats [1] (setting [4]), the “LEARNERS (%)” value was found to be 100.0% and the CARs was 24.0 + 1.8**. Further, the “effect on number of conditioned responses and percentage of learners (in words)” value with Wistar rats [1] is on record as “proved also to be effective”.
On to `N[C@@H](COP(=O)(O)O)C(=O)O` [PR 157, L-Phosphoserine salt with L-Arginine and L-Lysine], for which the “LEARNERS (%)” value was 25.0% in the experiment on Wistar rats [1] (setting [5]); 50.0** % with Wistar rats [1] (setting [6]); 50.0** % with Wistar rats [1] (setting [7]); 50.0% in the experiment on Wistar rats [1] (setting [3]); 75.0** % in the experiment on Wistar rats [1] (setting [4]); 100.0** % in the experiment with Wistar rats [1] (setting [8]). In addition, the CARs in the experiment on Wistar rats [1] (setting [5]) was 7.9 + 0.3*; in the experiment with Wistar rats [1] (setting [6]) it was 11.5 + 0.3*; in the experiment with Wistar rats [1] (setting [7]) it was 18.6 + 0.4*; in the experiment with Wistar rats [1] (setting [3]), 19.4 + 0.4*; with Wistar rats [1] (setting [4]), 22.2 + 1.4*; in the experiment on Wistar rats [1] (setting [8]), 24.4 + 1.4*. Also, the “effect on number of conditioned responses and percentage of learners (in words)” value in the experiment on Wistar rats [1] was “caused an increase in the number of conditioned responses as well as in the percentage of learners, both in young and elderly animals”. The “LATENCY (seconds)” value is recorded as “(12) 46.0* seconds” in the experiment with Wistar rats [2] (setting [5]); “(12) 79.4* seconds” in the experiment with Wistar rats [2] (setting [6]); “(12) 82.0* seconds” in the experiment with Wistar rats [2] (setting [7]); “(12) 112.3* seconds” in the experiment with Wistar rats [2] (Young rats, 5 mg/kg orally once a day during 20 days); “(12) 161.5* seconds” with Wistar rats [2] (Young rats, 10 mg/kg orally once a day during 20 days); “(12) 265.1* seconds” in the experiment with Wistar rats [2] (setting [8]). For the same compound, the “effect on acquirement of avoidance responses (in words)” value in the experiment with Wistar rats [2] was “caused a dose-related improvement in the acquirement of avoidance responses both in young and elderly animals”. Moreover, the “DURATION OF STILLNESS” value in the experiment on elderly rats (5 mg/kg orally once a day during 20 days) was 280.2 + 20.3*; in the experiment on elderly rats (10 mg/kg orally once a day during 20 days), 263.1 + 33.4*; with elderly rats (20 mg/kg orally once a day during 20 days), 236.7 + 28.9*. Also, the “effect on stillness (in words)” value in the experiment with elderly rats is given as “showed a dose-related reduction in the stillness of the elderly rats”.
As for `N[C@@H](COP(=O)(O)O)C(=O)O` [Phosphoserine], the “LEARNERS (%)” value is reported as 25.0% with Wistar rats [1] (setting [9]); 37.5* % in the experiment on Wistar rats [1] (setting [10]); 37.5** % in the experiment with Wistar rats [1] (setting [11]); 50.0% with Wistar rats [1] (setting [12]); 50.0% in the experiment with Wistar rats [1] (setting [13]); 75.0% in the experiment on Wistar rats [1] (setting [14]). Further, the CARs is reported as 5.9 + 0.4* with Wistar rats [1] (setting [9]); 6.2 + 0.5* in the experiment on Wistar rats [1] (setting [10]); 9.2 + 0.6* in the experiment on Wistar rats [1] (setting [11]); 16.1 + 0.5 in the experiment with Wistar rats [1] (setting [12]); 17.6 + 0.5 with Wistar rats [1] (setting [13]); 17.2 + 0.6 with Wistar rats [1] (setting [14]). In addition, in the experiment with Wistar rats [1], the “effect on number of conditioned responses and percentage of learners (in words)” value is recorded as “caused similar effects on the elderly animals only”. Moreover, the “LATENCY (seconds)” value with Wistar rats [2] (setting [9]) is reported as “(12) 34.8 seconds”; with Wistar rats [2] (setting [10]), “(12) 50.7* seconds”; in the experiment on Wistar rats [2] (setting [11]), “(12) 65.0* seconds”; with Wistar rats [2] (setting [12]), “(12) 97.5* seconds”; in the experiment on Wistar rats [2] (setting [13]) it was “(12) 110.2* seconds”; in the experiment on Wistar rats [2] (setting [14]), “(12) 186.0* seconds”. Moreover, the “effect on acquirement of avoidance responses (in words)” value in the experiment with Wistar rats [2] is listed as “proved to be effective only on the elderly animals”. The figures for the “DURATION OF STILLNESS” value in the experiment with elderly rats (1.8 mg/kg orally once a day during 20 days), with elderly rats (3.6 mg/kg orally once a day during 20 days) and in the experiment with elderly rats (7.2 mg/kg orally once a day during 20 days) were 301.0 + 31.4*, 291.7 + 32.7* and 265.8 + 24.7*, respectively. For the same compound, the “effect on stillness (in words)” value with elderly rats was “showed a dose-related reduction in the stillness of the elderly rats”.

(Values after patent EP0198508A1, “L-phosphoserine salts, a process for the preparation thereof and pharmaceutical compositions containing them” (LABORATORI PROPHIN S.p.A., priority 1985, dated 1986).)
